From patent US11534443B2, “Quinazoline compounds, preparation method, use, and pharmaceutical composition thereof” (INSTITUTE OF MATERIA MEDICA, CHINESE ACADEMY OF MEDICAL …, priority 2016, dated 2022) come the findings set out here.

One test concerns the target PI3Kα (Homo sapiens (Human), UniProt P42336). The experiment in a line: Biochemical evaluation of activity of PI3Kα (Kinase-Glo luminescence kinase assay). The note with it: 25 μM ATP, 50 μM PIP2, 1 h at room temperature. In short, it runs like this:
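Inhibition of PI3Kα was measured in vitro with a luciferase-based Kinase-Glo™ luminescence readout in white 384-well plates at room temperature. Compound diluted 25-fold in buffer (50 mM Hepes pH 7.5, 3 mM MgCl2, 100 mM NaCl, 1 mM EGTA, 0.03% CHAPS, 2 mM DTT) was mixed with enzyme, then PIP2/ATP substrate was added. Percent inhibition used enzyme-free and DMSO controls; IC50 was fitted with XLfit.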

The subject of test [1] is human gastric cancer HGC-27 subcutaneous xenografts. The experiment in a line: Xenograft efficacy in nude mice, HGC-27. The format is in vivo. How it is done: Human gastric cancer HGC-27 cells were collected under aseptic conditions, and the cell density was adjusted to 1×10^6 cells/mL with sterile saline, 0.2 mL of which was implanted into the back of the nude mice. […] When the tumor grew to 100-300 mm^3 after 6 days, the animals were randomly divided into groups and administration was started (marked as Day 0). The test compound was administered orally every day. Body weight was measured twice a week and the length and width of the tumor were measured with a vernier caliper. After 20 days of dosing, the nude mice were sacrificed by cervical dislocation and the tumor issues were exfoliated, weighed and photographed. Finally, the tumor inhibitory rate was calculated. The antitumor efficacy was evaluated by the tumor inhibitory rate.
The tumor volume was calculated as follows: Tumor volume=(a×b^2)/2, where a and b represented the length and width of the tumor.
The percentage of tumor growth inhibition was calculated as follows: Tumor growth inhibition (%)=(1−T/C)×100, where T was the final volume of the tumor in the test compound group and C was the final volume of the tumor in the solvent control group.
The percentage of tumor regression was calculated by 100×(final tumor volume-initial tumor volume)/initial tumor volume.

PI3Kα, sequence (P42336 whole entry): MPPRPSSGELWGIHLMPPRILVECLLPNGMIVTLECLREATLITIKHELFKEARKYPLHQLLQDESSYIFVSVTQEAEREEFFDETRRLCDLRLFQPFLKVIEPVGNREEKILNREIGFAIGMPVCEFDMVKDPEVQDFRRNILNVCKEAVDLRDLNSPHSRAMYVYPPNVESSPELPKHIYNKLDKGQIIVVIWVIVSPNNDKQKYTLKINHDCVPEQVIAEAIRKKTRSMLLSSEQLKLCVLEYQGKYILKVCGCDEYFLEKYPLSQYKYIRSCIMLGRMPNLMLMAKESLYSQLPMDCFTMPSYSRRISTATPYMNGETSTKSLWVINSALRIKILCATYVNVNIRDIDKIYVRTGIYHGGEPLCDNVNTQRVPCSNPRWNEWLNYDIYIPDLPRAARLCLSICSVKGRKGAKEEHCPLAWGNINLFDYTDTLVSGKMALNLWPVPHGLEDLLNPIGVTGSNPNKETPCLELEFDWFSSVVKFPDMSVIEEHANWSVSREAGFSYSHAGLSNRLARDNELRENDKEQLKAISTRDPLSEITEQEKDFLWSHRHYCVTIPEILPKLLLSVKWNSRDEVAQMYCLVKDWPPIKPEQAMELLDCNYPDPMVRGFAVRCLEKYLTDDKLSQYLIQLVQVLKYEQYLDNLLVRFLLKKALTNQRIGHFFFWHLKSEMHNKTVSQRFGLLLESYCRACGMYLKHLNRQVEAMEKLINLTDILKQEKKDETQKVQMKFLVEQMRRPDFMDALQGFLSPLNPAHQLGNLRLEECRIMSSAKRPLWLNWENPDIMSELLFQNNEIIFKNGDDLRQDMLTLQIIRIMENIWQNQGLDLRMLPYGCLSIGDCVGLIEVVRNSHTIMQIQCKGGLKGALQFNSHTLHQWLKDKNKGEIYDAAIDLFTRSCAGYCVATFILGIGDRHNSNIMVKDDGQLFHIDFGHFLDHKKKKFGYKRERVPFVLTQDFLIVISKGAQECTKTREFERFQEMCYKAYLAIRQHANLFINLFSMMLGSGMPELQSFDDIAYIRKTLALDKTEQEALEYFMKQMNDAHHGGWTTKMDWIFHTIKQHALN
PI3Kα, sequence (P27986 whole entry partner): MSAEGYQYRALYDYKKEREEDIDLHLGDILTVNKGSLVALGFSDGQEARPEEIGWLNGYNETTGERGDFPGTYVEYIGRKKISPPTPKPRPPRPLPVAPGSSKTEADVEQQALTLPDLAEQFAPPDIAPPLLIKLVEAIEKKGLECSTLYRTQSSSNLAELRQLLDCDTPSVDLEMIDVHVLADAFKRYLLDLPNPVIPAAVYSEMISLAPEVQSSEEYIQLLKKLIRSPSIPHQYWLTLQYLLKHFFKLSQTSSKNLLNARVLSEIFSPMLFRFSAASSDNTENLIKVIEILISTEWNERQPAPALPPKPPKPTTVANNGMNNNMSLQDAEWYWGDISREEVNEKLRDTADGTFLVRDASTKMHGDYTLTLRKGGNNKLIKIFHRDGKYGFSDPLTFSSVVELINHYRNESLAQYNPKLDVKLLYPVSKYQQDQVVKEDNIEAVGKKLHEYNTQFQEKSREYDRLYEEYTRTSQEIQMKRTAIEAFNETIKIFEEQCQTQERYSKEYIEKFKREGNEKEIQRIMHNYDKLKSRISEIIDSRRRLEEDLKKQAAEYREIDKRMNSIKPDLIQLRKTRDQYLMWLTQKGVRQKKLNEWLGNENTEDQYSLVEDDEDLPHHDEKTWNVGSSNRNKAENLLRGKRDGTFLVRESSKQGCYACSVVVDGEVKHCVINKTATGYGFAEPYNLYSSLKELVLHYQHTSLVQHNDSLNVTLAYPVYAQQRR

As for `CNc1nc(C)c2cc(-c3cnc(OC)c(NS(=O)(=O)c4ccc(F)cc4F)c3)cc(O[C@@H]3CCOC3)c2n1` [Example 32, (R)—N-(2-methoxy-5-(4-methyl-2-(methylamino)-8-((tetrahydrofuran-3-yl)oxy)quinazolin-6-yl)pyridin-3-yl)-2,4-difluorobenzenesulfonamide], the IC50 against PI3Kα was 0.82 nM. The “inhibitory effect on growth of HGC-27 subcutaneous xenografts (in words)” value in test [1] is “significant inhibitory effect”. Further, the Growth inhibition in test [1] (HGC-27 xenograft, 5 mg/kg/day orally, 20 days of dosing) is on record as 76.9%. For the same molecule, in test [1] (HGC-27 xenograft, 10 mg/kg/day orally, 20 days of dosing), the Regression is reported as 70.5%.
